According to ChEMBL document CHEMBL5236579, “Hydrophobicity Determines the Bacterial Killing Rate of α-Helical Antimicrobial Peptides and Influences the Bacterial Resistance Development” (J Med Chem, 2022):
Values after ≈ are worked out from the molar mass of the structure shown. Active and inactive are the calls of the source. The rule behind the calls is not given here. Where a SMILES comes first, the peptide text is derived from it.

Tests used:
Escherichia coli [1] = assay: In vivo antibacterial activity against Escherichia coli ATCC25722 infected in Balb/c mouse model assessed as reduction in bacterial CFU count on skin at 20 ug/ml incubated for 6 hrs post infection and measured after 2 hrs post compound treatment; type: functional, organism-based; settings: dose 20.0 µg/ml, time 8.0 hrs
Bacillus cereus = assay: Antimicrobial activity against clinical isolates Bacillus cereus by two fold broth microdilution method; type: functional
[2] = Effect on morphological changes in POPC/POPG (3:1) bilayer membrane assessed as formation of bulge aggregates by measuring the height of bulges at 2 ug/ml incubated for 40 mins under neutral pH and low ionic strength by atomic force microscopic analysis; type: cell membranes; settings: Cell membrane, dose 2.0 µg/ml
Cell membrane [3] = assay: Induction of bacterial inner membrane permeabilization in Vibrio parahaemolyticus ATCC17802 assessed as calcein leakage from large unilamellar vesicles liposomes at 5 times MIC measured upto 60 mins by fluorescence based microplate reader assay; type: cell membranes
Cell membrane [4] = assay: Induction of outer membrane permeabilization in Escherichia coli ATCC25722 assessed as increase fluorescence intensity measured upto 15 mins by NPN uptake assay; type: cell membranes
Vibrio parahaemolyticus [5] = assay: Induction of bacterial resistance in Vibrio parahaemolyticus ATCC17802 assessed as change in MIC treated over 30 serial passages measured after 24 hrs; type: functional, organism-based
Vibrio parahaemolyticus [6] = assay: Antimicrobial activity against Vibrio parahaemolyticus ATCC17802 by two fold broth microdilution method; type: functional
Staphylococcus aureus [7] = assay: Antimicrobial activity against clinical isolates Staphylococcus aureus by two fold broth microdilution method; type: functional
Cell membrane [8] = assay: Induction of outer membrane permeabilization in Escherichia coli ATCC25722 assessed as increase fluorescence intensity at 0.5 to 2 times of MIC by NPN uptake assay; type: cell membranes; settings: time <= 15.0 min, TDE = time-dependent effect
Lipopolysaccharide (LPS) [9] = assay: Binding affinity to Escherichia coli LPS assessed as dissociation constant measured upto 600 sec by surface plasmon resonance imaging method
Vibrio parahaemolyticus [10] = assay: Induction of morphological changes in Vibrio parahaemolyticus ATCC17802 assessed as surface fibrosis incubated at 5 times MIC and measured after 15 mins by scanning electron microscopy based analysis; type: functional, organism-based
Vibrio parahaemolyticus [11] = assay: Bactericidal activity against Vibrio parahaemolyticus ATCC17802 assessed as killing rate at 0.5 X MIC by measuring time limit of detection by bacterial killing kinetic assay; type: functional
Vibrio parahaemolyticus [12] = assay: Induction of morphological changes in Vibrio parahaemolyticus ATCC17802 assessed as cellular inclusion leakage incubated at 5 times MIC and measured after 15 mins by scanning electron microscopy based analysis; type: functional, organism-based
Cell membrane [13] = assay: Binding affinity to Vibrio parahaemolyticus ATCC17802 cell membrane assessed as increase in fluorescence intensity measured after 30 mins by flow cytometry analysis (reference value: 1.85%); type: cell membranes
Cell membrane [14] = assay: Induction of inner membrane permeabilization in Vibrio parahaemolyticus ATCC17802 at 5 times MIC measured upto 200 mins by propidium iodide penetration assay; type: cell membranes
Lipopolysaccharide (LPS) [15] = assay: Binding affinity to Escherichia coli LPS assessed as LPS neutralizing activity measured after 5 mins by LPS neutralization assay
Cell membrane [16] = assay: Binding affinity to Vibrio parahaemolyticus ATCC17802 cell membrane assessed as increase in fluorescence intensity measured after 120 mins by flow cytometry analysis (reference value: 1.88%); type: cell membranes
Vibrio parahaemolyticus [17] = assay: Induction of morphological changes in Vibrio parahaemolyticus ATCC17802 assessed as massive cell collapse incubated at 5 times MIC and measured after 15 mins by scanning electron microscopy based analysis; type: functional, organism-based
Cell membrane [18] = assay: Induction of outer membrane permeabilization in Vibrio parahaemolyticus ATCC17802 assessed as increase fluorescence intensity at 0.5 to 2 times of MIC by NPN uptake assay; type: cell membranes; settings: time <= 15.0 min, TDE = time-dependent effect
HaCaT = assay: Cytotoxicity against human HaCaT cells incubated for 48 hrs by MTT assay; type: toxicity, cell-based; settings: dose < 250 µg/ml
Peritoneal macrophage = assay: Cytotoxicity against mouse peritoneal macrophage cells incubated for 48 hrs by MTT assay; type: toxicity, cell-based; settings: dose < 250 µg/ml
[19] = Hemolytic activity in human erythrocytes measured after 30 mins; type: toxicity, cell-based; settings: erythrocyte, 0.5 h
Escherichia coli [20] = assay: Antimicrobial activity against Escherichia coli ATCC27622 by two fold broth microdilution method; type: functional
Cell membrane [21] = assay: Induction of inner membrane permeabilization in Vibrio parahaemolyticus ATCC17802 assessed as increase in PI fluorescence intensity at 5 times MIC by propidium iodide penetration assay; type: cell membranes; settings: time <= 200.0 min
Escherichia coli [22] = assay: In vivo antibacterial activity against Escherichia coli ATCC25722 infected in Balb/c mouse model assessed as reduction in bacterial CFU count on skin at 20 ug/ml applied 4 hrs after infection and measured after 120 mins; type: functional, organism-based; settings: dose 20.0 µg/ml
Cell membrane [23] = assay: Induction of inner membrane permeabilization in Vibrio parahaemolyticus ATCC17802 assessed as calcein leakage at 5 times MIC by calcein-AM leakage assay; type: cell membranes; settings: time <= 200.0 min, TDE = time-dependent effect
Cell membrane [24] = assay: Induction of outer membrane permeabilization in Vibrio parahaemolyticus ATCC17802 assessed as increase fluorescence intensity measured upto 15 mins by NPN uptake assay; type: cell membranes
Staphylococcus aureus [25] = assay: Antimicrobial activity against Staphylococcus aureus ATCC25923 by two fold broth microdilution method; type: functional; settings: read-out: MIC
Cell membrane [26] = assay: Induction of cytoplasmic membrane permeabilization in Vibrio parahaemolyticus […] assessed as calcein transmembrane diffusion into interior of gaint unilamellar vesicles by measuring time to equilibrium between inside and outside of vesicles at 2 ug/mL by confocal microscopy based calcein-AM leakage assay; type: cell membranes; settings: dose 2.0 µg/ml
Lipopolysaccharide (LPS) [27] = assay: Binding affinity to Escherichia coli LPS assessed as LPS neutralizing activity measured after 60 mins by LPS neutralization assay

CC[C@H](C)[C@H](NC(=O)[C@H](CC(C)C)NC(=O)[C@H](CCCNC(=N)N)NC(=O)[C@H](CC(C)C)NC(=O)[C@H](CC(C)C)NC(=O)[C@H](CCCCN)NC(=O)[C@H](CCCCN)NC(=O)[C@H](Cc1ccccc1)NC(=O)[C@H](CC(C)C)NC(=O)CNC(=O)[C@@H](N)CC(C)C)C(=O)N[C@@H](CC(C)C)C(=O)N[C@@H](CCCCN)C(=O)NCC(=O)N[C@@H](Cc1ccccc1)C(=O)N[C@@H](CCCCN)C(=O)N[C@@H](CC(C)C)C(=O)O (H-LGLFKKLLRLILKGFKL-OH)
Activity (Escherichia coli [1]): Active | MIC (Bacillus cereus): 9.38 µg/mL (≈ 4.69 µM) | Activity [2]: 20 nm | Activity (Cell membrane [3]): Active | Activity (Cell membrane [4]): Dose-Dependent Effect | Activity (Vibrio parahaemolyticus [5]): inactive | MIC (Vibrio parahaemolyticus [6]): 4.69 µg/mL (≈ 2.34 µM) | MIC (Staphylococcus aureus [7]): 9.38 µg/mL (≈ 4.69 µM) | Activity (Cell membrane [8]): Tde | Kd (Lipopolysaccharide (LPS) [9]): 82.1 µM | Activity (Vibrio parahaemolyticus [10]): Active | Time (Vibrio parahaemolyticus [11]): 15 min | Activity (Vibrio parahaemolyticus [12]): Active | Activity (Cell membrane [13]): 98.5% | Activity (Cell membrane [14]): Active | Activity (Lipopolysaccharide (LPS) [15]): Active | Activity (Cell membrane [16]): 88.1% | Activity (Vibrio parahaemolyticus [17]): Active | Activity (Cell membrane [18]): Tde | Activity (HaCaT): Dose-Dependent Effect | Activity (Peritoneal macrophage): Dose-Dependent Effect | Activity [19]: Toxic | MIC (Escherichia coli [20]): 9.38 µg/mL (≈ 4.69 µM) | Activity (Cell membrane [21]): Active | Activity (Escherichia coli [22]): Active | Activity (Cell membrane [23]): Tde | Activity (Cell membrane [24]): Dose-Dependent Effect | MIC (Staphylococcus aureus [25]): 1.17 µg/mL (≈ 0.585 µM) | TIME (Cell membrane [26]): < 0.25 h | Activity (Lipopolysaccharide (LPS) [27]): Active
